Columns and labels:
[1] = system: MOLM14 F691L cells; assay: MOLM14 F691L cell viability (Cell Titer Glo); format: cell-based; details: Homo sapiens, MOLM-14, Table 22, 48 h
Procedure: (§1) Both cell lines have activated FLT3 receptors, each of which carry additional resistance mutations in the kinase domain (D835Y and F691L, respectively).
(§2) MOLM14 D835Y and MOLM14 F691L cells were grown in RPMI-1640 media supplemented with 20% fetal bovine serum (FBS). For viability/cytotoxicity assessments, cells were seeded into 1536-well white polystyrene tissue culture-treated Greiner plates using a Multidrop Combi dispenser (ThermoFisher), in final volume 5 μL of growth media per well, at a density of 1000 cells per well. After cell addition, 23 nL of test compound were transferred into individual wells (22 doses tested for each test compound, with a 1:2 dilution series starting at 10 μM) via a 1536 pin-tool. Bortezomib (final concentration 2.3 μM) was used as a positive control for cell cytotoxicity. Plates were incubated for 48 hours at standard incubator conditions covered by a stainless steel gasketed lid to prevent evaporation. 48 hours post compound addition, 3 μL of Cell Titer Glo (Promega) were added to each well and plates were incubated at room temperature for 15 minutes with the stainless-steel lid in place. Luminescence readings were taken using a Viewlux imager (PerkinElmer) with a 2 second exposure time per plate.

[2] = target: IRAK1 (Homo sapiens, UniProt P51617); assay: RBC HotSpot kinase inhibition assay, IRAK1; format: biochemical; details: Table 17; isolated kinase, 33P-ATP, 2 h
IRAK1, sequence (P51617 whole entry, the tested form may be a part): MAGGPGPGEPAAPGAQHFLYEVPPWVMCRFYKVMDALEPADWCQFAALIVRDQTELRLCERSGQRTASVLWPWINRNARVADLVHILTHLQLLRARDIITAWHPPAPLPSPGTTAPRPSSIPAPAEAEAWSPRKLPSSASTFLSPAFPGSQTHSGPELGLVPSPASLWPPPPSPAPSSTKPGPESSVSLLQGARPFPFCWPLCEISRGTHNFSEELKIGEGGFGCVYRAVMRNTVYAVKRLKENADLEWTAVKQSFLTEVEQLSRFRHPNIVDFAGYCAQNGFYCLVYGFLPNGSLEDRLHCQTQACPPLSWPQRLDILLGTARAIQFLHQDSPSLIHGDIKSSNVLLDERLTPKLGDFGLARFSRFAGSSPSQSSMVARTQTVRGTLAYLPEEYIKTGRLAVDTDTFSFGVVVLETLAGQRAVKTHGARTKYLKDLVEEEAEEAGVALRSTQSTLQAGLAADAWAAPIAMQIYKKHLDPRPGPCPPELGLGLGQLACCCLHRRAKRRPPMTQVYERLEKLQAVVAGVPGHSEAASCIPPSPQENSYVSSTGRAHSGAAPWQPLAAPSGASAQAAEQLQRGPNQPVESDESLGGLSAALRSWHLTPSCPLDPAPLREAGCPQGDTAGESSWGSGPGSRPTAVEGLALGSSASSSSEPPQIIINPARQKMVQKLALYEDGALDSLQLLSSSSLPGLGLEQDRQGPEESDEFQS
Source text: (§3) This assay uses the isolated kinase enzyme. This assay is very useful for determining competition of the inhibitor for ATP and/or substrates and for measuring the kinetics of enzyme inhibition. […] Unlike kinase binding assays that measure competition for ATP, the HotSpot Kinase Assay is a functional assay that measures catalytic activity; as such it measures relative functional potency regardless of the mechanism of enzyme inhibition. This assay uses the form of the various enzymes that are easiest to express, which may not necessarily be the form of the enzyme that exist in the cell. (Sometimes the carboxy terminus has been truncated to aid in expression, or, if it is a receptor kinase, the enzyme itself is isolated from the other parts of the receptor that are involved in regulating kinase activity.)
(§4) The reagent used was as follows: Base Reaction buffer; 20 mM Hepes (pH 7.5), 10 mM MgCl2, 1 mM EGTA, 0.01% Brij35, 0.02 mg/ml BSA, 0.1 mM Na3VO4, 2 mM DTT, 1% DMSO. Required cofactors were added individually to each kinase reaction.
(§5) The reaction procedure was as follows: • 1) Substrates were prepared in freshly prepared Reaction Buffer. • 2) Any required cofactors were delivered to the substrate solution above. • 3) Kinase was delivered into the substrate solution and gently mixed. • 4) Compounds were delivered in 100% DMSO into the kinase reaction mixture by Acoustic technology (Echo550; nanoliter range), followed by incubation for 20 min at room temp. • 5) ^33P-ATP was delivered into the reaction mixture to initiate the reaction. • 6) The mixture was incubated for 2 hours at room temperature. • 7) Kinase activity was detected by P81 filter-binding method.
as §3, with “Although not wishing to be limited by theory, it is believed that sometimes” for “(Sometimes”, “activity.” for “activity.)”
(§6) The reagent used was as follows: Base Reaction buffer; 20 mM Hepes (pH 7.5), 10 mM MgCl2, 1 mM EGTA, 0.01% Brij35, 0.02 mg/ml BSA, 0.1 mM Na3 VO4, 2 mM DTT, 1% DMSO.
(§7) Required cofactors were added individually to each kinase reaction.
as §5, with “33P-ATP” for “^33P-ATP”

[3] = target: T1, IRAK4 (Homo sapiens, UniProt Q9NWZ3); assay: RBC HotSpot kinase inhibition assay, IRAK4; format: biochemical; details: Table 17; isolated kinase, 33P-ATP, 2 h
T1 sequence (Q9NWZ3 1-460): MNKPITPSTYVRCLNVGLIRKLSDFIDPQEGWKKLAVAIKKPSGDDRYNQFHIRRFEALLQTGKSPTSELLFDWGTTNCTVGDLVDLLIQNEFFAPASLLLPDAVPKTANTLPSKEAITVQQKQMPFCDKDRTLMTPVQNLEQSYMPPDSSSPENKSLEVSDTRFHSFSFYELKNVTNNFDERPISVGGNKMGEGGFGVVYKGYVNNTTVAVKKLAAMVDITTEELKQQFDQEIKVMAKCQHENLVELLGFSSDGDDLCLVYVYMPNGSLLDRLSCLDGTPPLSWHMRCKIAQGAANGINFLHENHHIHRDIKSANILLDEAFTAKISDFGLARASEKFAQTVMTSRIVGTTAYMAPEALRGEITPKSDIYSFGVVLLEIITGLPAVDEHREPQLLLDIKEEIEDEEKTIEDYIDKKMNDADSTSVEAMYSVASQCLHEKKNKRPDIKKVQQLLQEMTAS
Source text: as §3, §4, §5
as §3, with “Although not wishing to be limited by theory, it is believed that sometimes” for “(Sometimes”, “activity.” for “activity.)”
as §6, §7
as §5, with “33P-ATP” for “^33P-ATP”

[4] = system: MOLM14 D835Y cells; assay: MOLM14 D835Y cell viability (Cell Titer Glo); format: cell-based; details: Homo sapiens, MOLM-14, Table 22, 48 h
Procedure: as §1, §2
This cell line has activated FLT3 receptors, which carries an additional resistance mutation in the kinase domain at D835Y.
as §2, with “D835Y” for “D835Y and MOLM14 F691L”, “mL” for “μL”, “mM)” for “μM)”

[5] = target: T2, FLT3 (Homo sapiens, UniProt P36888); assay: RBC HotSpot kinase inhibition assay, FLT3; format: biochemical; details: Table 17; isolated kinase, 33P-ATP, 2 h
T2 sequence (P36888 27-993): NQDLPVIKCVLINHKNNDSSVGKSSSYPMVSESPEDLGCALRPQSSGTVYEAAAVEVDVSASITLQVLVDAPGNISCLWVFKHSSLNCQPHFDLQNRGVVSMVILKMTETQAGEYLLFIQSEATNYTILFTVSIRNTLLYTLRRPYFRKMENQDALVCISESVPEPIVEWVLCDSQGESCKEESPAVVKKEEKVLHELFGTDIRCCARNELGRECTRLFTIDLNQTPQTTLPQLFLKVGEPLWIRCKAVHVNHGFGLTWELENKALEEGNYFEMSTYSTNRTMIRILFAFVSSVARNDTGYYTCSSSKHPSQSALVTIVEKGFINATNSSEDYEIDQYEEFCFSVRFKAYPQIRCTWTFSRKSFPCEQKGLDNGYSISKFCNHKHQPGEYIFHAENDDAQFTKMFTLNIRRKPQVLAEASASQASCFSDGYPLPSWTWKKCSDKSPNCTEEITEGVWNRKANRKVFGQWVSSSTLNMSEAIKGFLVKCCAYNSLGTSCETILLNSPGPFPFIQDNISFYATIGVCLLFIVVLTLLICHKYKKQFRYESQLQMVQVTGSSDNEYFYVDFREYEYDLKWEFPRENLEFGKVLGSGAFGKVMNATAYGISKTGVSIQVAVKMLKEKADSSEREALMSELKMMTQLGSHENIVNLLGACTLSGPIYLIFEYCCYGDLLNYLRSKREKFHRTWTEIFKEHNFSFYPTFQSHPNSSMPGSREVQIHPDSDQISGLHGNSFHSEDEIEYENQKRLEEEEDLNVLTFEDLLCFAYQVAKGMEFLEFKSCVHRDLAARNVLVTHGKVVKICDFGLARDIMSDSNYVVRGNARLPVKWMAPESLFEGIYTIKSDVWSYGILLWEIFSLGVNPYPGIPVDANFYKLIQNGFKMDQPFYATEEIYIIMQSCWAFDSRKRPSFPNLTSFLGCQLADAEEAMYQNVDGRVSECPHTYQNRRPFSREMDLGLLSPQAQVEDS
Source text: as §3, §4, §5
as §3, with “Although not wishing to be limited by theory, it is believed that sometimes” for “(Sometimes”, “activity.” for “activity.)”
as §6, §7
as §5, with “33P-ATP” for “^33P-ATP”

[6] = system: NF-κB; assay: NF-κB SEAP reporter assay in THP-1-Blue NF-κB cells, hIL1B stimulated; format: cell-based; details: Table 21; THP-1-Blue cells, 1 ng/ml hIL1B, 24 h; read-out: NF-κB IL1B IC50
Procedure: (§8) THP-1-Blue NF-κB cells (InvivoGen) carrying a stable integrated NF-κB-inducible secreted embryonic alkaline phosphatase (SEAP) reporter construct were plated at a concentration of 1×10^5 cells per well. The cells were stimulated with Pam3CSK4 (1 ng/ml) or hIL1B (1 ng/ml). After 10-20 minutes, the cells were then treated with vehicle (DMSO) or serial dilutions of the test compounds (10 doses tested for each test compound, with a […] starting at 1 μM or 3 μM) with a final volume of 200 μL for 24 hours at 37 °C. After 24 hours, the cells were centrifuged and 20 μL supernatant was incubated with 180 μL QUANTI-Blue reagent at 37 °C for 30-60 minutes. The levels of NF-κB-induced was measured in a microplate reader at 620 nm.
as §8, with “1 mM” for “1 μM”, “3 mM)” for “3 μM)”, “200 mL” for “200 μL”, “20 mL” for “20 μL”, “180 mL” for “180 μL”, “NF-κB-induced gene expression were” for “NF-κB-induced was”

[7] = system: NF-κB; assay: NF-κB SEAP reporter assay in THP-1-Blue NF-κB cells, Pam3CSK4 stimulated; format: cell-based; details: Table 21; THP-1-Blue cells, 1 ng/ml Pam3CSK4, 24 h; read-out: NF-κB Pam3SCK4 IC50
Procedure: as §8
as §8, with “1 mM” for “1 μM”, “3 mM)” for “3 μM)”, “200 mL” for “200 μL”, “20 mL” for “20 μL”, “180 mL” for “180 μL”, “NF-κB-induced gene expression were” for “NF-κB-induced was”

COc1cn2ncc(-c3ccnc(N[C@@H]4CCCNC4)n3)c2nc1C(C)(C)O [Compound 2a, (R)-2-(6-methoxy-3-(2-(piperidin-3-ylamino)pyrimidin-4-yl)pyrazolo[1,5-a]pyrimidin-5-yl)propan-2-ol]
IC50 [1]: 1790 nM | IC50 [2]: 365 nM | IC50 [3]: 127 nM | IC50 [4]: 159 nM | IC50 [5]: 8 nM

COc1cn2ncc(-c3ccnc(N[C@@H]4CCCNC4)n3)c2nc1C1CC1 [Compound 9a, (R)-4-(5-cyclopropyl-6-methoxypyrazolo[1,5-a]pyrimidin-3-yl)-N-(piperidin-3-yl)pyrimidin-2-amine]
IC50 [2]: 44 nM | IC50 [3]: 4 nM | IC50 [6]: 128 nM | IC50 [5]: < 0.5 nM | IC50 [7]: 173 nM
